From US20260092061A1, “COMPOUNDS FOR TARGETED PROTEIN DEGRADATION” (Amphista Therapeutics Limited, priority 2022, published 2026)

Columns and labels:
BRD9 [1] = target: T1, BRD9 (Homo sapiens, UniProt Q9H8M2); assay: BRD9 degradation, HiBiT-BRD9 KI HEK293 (LgBiT) cells, NanoGlo Lytic Endpoint assay (Assay Protocol 1); format: cell-based; details: BRD9 degradation; for Dmax / Dmax at 1 µM: HEK293; for Dmax: read-out: Dmax^1; for Dmax at 1 µM: 1 μM compound at 6 h of treatment, read-out: Assay 1 Dmax
T1 sequence (Q9H8M2 1-597): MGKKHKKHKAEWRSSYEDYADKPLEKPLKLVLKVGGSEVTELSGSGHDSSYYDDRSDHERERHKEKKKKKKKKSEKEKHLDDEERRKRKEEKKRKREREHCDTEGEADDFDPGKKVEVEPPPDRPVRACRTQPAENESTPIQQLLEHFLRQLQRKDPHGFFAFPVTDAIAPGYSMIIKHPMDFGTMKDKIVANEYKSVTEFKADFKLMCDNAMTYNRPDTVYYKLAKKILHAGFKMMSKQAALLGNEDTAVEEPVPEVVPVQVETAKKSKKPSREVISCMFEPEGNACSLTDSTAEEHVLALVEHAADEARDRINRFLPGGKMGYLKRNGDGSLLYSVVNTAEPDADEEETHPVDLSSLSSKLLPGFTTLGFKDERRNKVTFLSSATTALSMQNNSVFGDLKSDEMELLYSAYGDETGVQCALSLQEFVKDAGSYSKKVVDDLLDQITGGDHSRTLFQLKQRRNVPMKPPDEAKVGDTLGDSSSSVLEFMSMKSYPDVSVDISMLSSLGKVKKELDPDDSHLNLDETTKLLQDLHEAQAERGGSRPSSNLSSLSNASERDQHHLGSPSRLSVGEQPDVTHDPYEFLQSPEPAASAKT
Procedure: HiBiT-BRD9 KI HEK293 (LgBiT) Cells (Promega CS3023412) were seeded at 8000 cells per well (38 μL) in sterile white bottom 384 well plates (Invitrogen 164610 or Greiner 781080) and incubated overnight at 37° C. with 5% CO2. The next day, compounds were prepared at 1000× final concentration in DMSO and diluted 1:100 in media (DMEM PAN Biotech P04-03550+10% FBS ATCC 302025). 4 μL compound was added to each well of the cell plate and incubated for 6 h at 37° C. with 5% CO2 BRD9 expression was quantified using the NanoGlo Lytic Endpoint assay (Promega N3050). The lytic buffer was equilibrated to room temperature for 10-15 min before lytic reagent was prepared by adding substrate (1:50) and LgBit protein (1:100) in lytic buffer. 40 μL lytic reagent mix was added to each well of the cel plate and plates were centrifuged briefly at ˜50g. Plates were incubated with shaking (350 RPM) for 12-24 min before reading using the LUM plus module of a BMG Pherastar FSX. Data was analysed using Dotmatics software and % BRD9 remaining was calculated by normalisation to average data from high and low control wells (DMSO treated cels and no cells respectively).

BRD9 [2] = target: T1, BRD9; assay: Degradation of BRD9 (IF), immunofluorescence in MV4-11 cells, 24 hours (Assay Protocol 2); format: cell-based; design: A suspension of MV4-11 cells (ATCC CRL-9591) was prepared; host or cells: MV4-11
Outline: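 % BRD9 remaining, scaled between DMSO (high) and 100 nM CFT-8634 (low) control wells, derives from mean Alexa 647 contrast in central nuclei by high-content imaging. MV4-11 cells had 24 h compound exposure at 37° C. before PFA fixation, Triton permeabilisation and anti-BRD9 E4Q3F immunostaining.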

[3] = Table 4, determined according to Assay Protocol 1, read-out: DC50^1
[4] = MV4-11, Table 4, BRD9 degradation, determined according to Assay Protocol 2, read-out: Dmax^2
[5] = Table 4, BRD9 degradation, determined according to Assay Protocol 2, read-out: DC50^2
[6] = Table 4, determined according to Assay Protocol 1
[7] = Table 2, Assay Protocol 1, 6 h of treatment, read-out: Assay 1 DC50
[8] = MV4-11, 24 h, Table 2, BRD9 degradation (IF), Assay Protocol 2, MV4-11 cells, read-out: Assay 2 DCmax
[9] = Table 2, BRD9 degradation (IF), Assay Protocol 2, MV4-11 cells, read-out: Assay 2 DC50

| Compound | DC50 (BRD9 [1]; [3]) [nM] | Dmax (BRD9 [2]; [4]) [%] | DC50 (BRD9 [2]; [5]) [nM] | Dmax at 1 µM (BRD9 [1]; Table 2, Assay Protocol 1) [%] | DC50 (BRD9 [1]; [7]) [nM] | Dmax (BRD9 [2]; [8]) [%] | DC50 (BRD9 [2]; [9]) [nM] | Dmax (BRD9 [1]; [6]) [%] |
| --- | --- | --- | --- | --- | --- | --- | --- | --- |
| COc1cc(-c2cn(C)c(=O)c(C)c2C)cc(OC)c1CN1CC2CC(C1)N2C(=O)/C(C#N)=C/c1cccc(Br)n1 (mixture of isomers) [BRD9m, (E/Z)-3-(6-bromopyridin-2-yl)-2-(3-(2,6-dimethoxy-4-(1,4,5-trimethyl-6-oxo-1,6-dihydropyridin-3-yl)benzyl)-3,6-diazabicyclo[3.1.1]heptane-6-carbonyl)acrylonitrile] | < 25 | – | > 200 | – | – | – | – | > 70 |
| COc1cc(-c2cn(C)c(=O)c(C)c2C)cc(OC)c1CN1C2CC1CN(C(=O)/C(C#N)=C/c1nccs1)C2 (mixture of isomers) [BRD9n, (E/Z)-2-(6-(2,6-dimethoxy-4-(1,4,5-trimethyl-6-oxo-1,6-dihydropyridin-3-yl)benzyl)-3,6-diazabicyclo[3.1.1]heptane-3-carbonyl)-3-(thiazol-2-yl)acrylonitrile] | – | – | 25 to 200 | – | – | – | – | 50 to 70 |
| COc1cc(-c2cn(C)c(=O)c(C)c2C)cc(OC)c1CN1C2CC1CN(C(=O)/C(C#N)=C/C1(C(F)(F)F)CCC1)C2 (mixture of isomers) [BRD9p, (E/Z)-2-(6-(2,6-dimethoxy-4-(1,4,5-trimethyl-6-oxo-1,6-dihydropyridin-3-yl)benzyl)-3,6-diazabicyclo[3.1.1]heptane-3-carbonyl)-3-(1-(trifluoromethyl)cyclobutyl)acrylonitrile] | – | > 70 | – | – | – | – | – | > 70 |
| COc1cc(-c2cn(C)c(=O)c(C)c2C)cc(OC)c1CN1CC2CCC(C1)N2C(=O)/C(C#N)=C/c1nccs1 (mixture of isomers) [BRD9q, (E/Z)-2-(3-(2,6-dimethoxy-4-(1,4,5-trimethyl-6-oxo-1,6-dihydropyridin-3-yl)benzyl)-3,8-diazabicyclo[3.2.1]octane-8-carbonyl)-3-(thiazol-2-yl)acrylonitrile] | – | – | < 25 | – | – | – | – | 50 to 70 |
| COc1cc(-c2cn(C)c(=O)c3cnccc23)cc(OC)c1CN1CCN(Cc2cccc3c2CCN(C(=O)/C(C#N)=C/c2nccs2)C3C)CC1 (mixture of isomers) [Compound A2, (E/Z)-2-(5-((4-(2,6-dimethoxy-4-(2-methyl-1-oxo-1,2-dihydro-2,7-naphthyridin-4-yl)benzyl)piperazin-1-yl)methyl)-1-methyl-1,2,3,4-tetrahydroisoquinoline-2-carbonyl)-3-(thiazol-2-yl)acrylonitrile] | – | – | – | 40 to 70 | < 1.25 | 40 to 70 | < 1.25 | – |
| COc1cc(-c2cn(C)c(=O)c3cnccc23)cc(OC)c1CN1CCN(Cc2cccc3c2CCN(C(=O)/C(C#N)=C/C(C)(C)C)C3C)CC1 (mixture of isomers) [Compound A3] | – | – | – | 40 to 70 | 1.25 to 10 | 40 to 70 | 1.25 to 10 | – |
| COc1cc(-c2cn(C)c(=O)c(C)c2C)cc(OC)c1CN1CCN(Cc2cccc3c2CCN(C(=O)/C(C#N)=C/C(C)(C)C)C3C)CC1 (mixture of isomers) [Compound A7, (E/Z)-2-(5-((4-(2,6-dimethoxy-4-(1,4,5-trimethyl-6-oxo-1,6-dihydropyridin-3-yl)benzyl)piperazin-1-yl)methyl)-1-methyl-1,2,3,4-tetrahydroisoquinoline-2-carbonyl)-4,4-dimethylpent-2-enenitrile] | – | – | – | 40 to 70 | 1.25 to 10 | 40 to 70 | 10 to 25 | – |
| COc1cc(-c2cn(C)c(=O)c3cnccc23)cc(OC)c1CN1CCN(Cc2cccc3c2CCN(C(=O)/C(C#N)=C\C2(F)CC2)C3C)CC1 (mixture of isomers) [Compound A22, (E/Z)-2-(5-((4-(2,6-dimethoxy-4-(2-methyl-1-oxo-1,2-dihydro-2,7-naphthyridin-4-yl)benzyl)piperazin-1-yl)methyl)-1-methyl-1,2,3,4-tetrahydroisoquinoline-2-carbonyl)-3-(1-fluorocyclopropyl)acrylonitrile] | – | – | – | > 75 | 1.25 to 10 | > 75 | < 1.25 | – |
| COc1cc(-c2cn(C)c(=O)c3cnccc23)cc(OC)c1CN1CCN(Cc2cccc3c2CCN(C(=O)/C(C#N)=C/C2(C)CC2)C3C)CC1 (mixture of isomers) [Compound A26, (E/Z)-2-(5-((4-(2,6-dimethoxy-4-(2-methyl-1-oxo-1,2-dihydro-2,7-naphthyridin-4-yl)benzyl)piperazin-1-yl)methyl)-1-methyl-1,2,3,4-tetrahydroisoquinoline-2-carbonyl)-3-(1-methylcyclopropyl)acrylonitrile] | – | – | – | 40 to 70 | 1.25 to 10 | 40 to 70 | 25 to 300 | – |
| COc1cc(-c2cn(C)c(=O)c3cnccc23)cc(OC)c1CN1CC2CC1CN2Cc1cccc2c1CCN(C(=O)/C(C#N)=C/C(C)(C)C)C2C (single isomer, unassigned) [Compound A39, (E/Z)-2-(5-((5-(2,6-dimethoxy-4-(2-methyl-1-oxo-1,2-dihydro-2,7-naphthyridin-4-yl)benzyl)-2,5-diazabicyclo[2.2.1]heptan-2-yl)methyl)-1-methyl-1,2,3,4-tetrahydroisoquinoline-2-carbonyl)-4,4-dimethylpent-2-enenitrile] | – | – | – | 40 to 70 | 1.25 to 10 | – | – | – |
| COc1cc(-c2cn(C)c(=O)c(C)c2C)cc(OC)c1CN1CCN(Cc2cccc3c2CCN(C(=O)/C(C#N)=C/c2ccn(C)n2)C3C)CC1 (stereo not drawn) [Compound A8, (E)-2-(5-((4-(2,6-dimethoxy-4-(1,4,5-trimethyl-6-oxo-1,6-dihydropyridin-3-yl)benzyl)piperazin-1-yl)methyl)-1-methyl-1,2,3,4-tetrahydroisoquinoline-2-carbonyl)-3-(1-methyl-1H-pyrazol-3-yl)acrylonitrile] | – | – | – | 40 to 70 | 10 to 25 | – | – | – |

Further lines, with some results ahead:

| DC50 (BRD9 [1]; [3]) [nM] | Dmax (BRD9 [2]; [4]) [%] | DC50 (BRD9 [2]; [5]) [nM] | Dmax at 1 µM (BRD9 [1]; Table 2, Assay Protocol 1) [%] | DC50 (BRD9 [1]; [7]) [nM] | Dmax (BRD9 [2]; [8]) [%] | DC50 (BRD9 [2]; [9]) [nM] | Compound | Dmax (BRD9 [1]; [6]) [%] |
| --- | --- | --- | --- | --- | --- | --- | --- | --- |
| < 25 | > 70 | < 25 | – | – | – | – | COc1cc(-c2cn(C)c(=O)c(C)c2C)cc(OC)c1CN1CC2CC1CN2C(=O)/C(C#N)=C/c1cccc(Br)n1 (mixture of isomers) [BRD9j, (E/Z)-3-(6-bromopyridin-2-yl)-2-(5-(2,6-dimethoxy-4-(1,4,5-trimethyl-6-oxo-1,6-dihydropyridin-3-yl)benzyl)-2,5-diazabicyclo[2.2.1]heptane-2-carbonyl)acrylonitrile] | – |
| < 25 | 50 to 70 | < 25 | – | – | – | – | COc1cccc(/C=C(\C#N)C(=O)N2CC3CC2CN3Cc2c(OC)cc(-c3cn(C)c(=O)c(C)c3C)cc2OC)n1 (mixture of isomers) [BRD9k, (E/Z)-2-(5-(2,6-dimethoxy-4-(1,4,5-trimethyl-6-oxo-1,6-dihydropyridin-3-yl)benzyl)-2,5-diazabicyclo[2.2.1]heptane-2-carbonyl)-3-(6-methoxypyridin-2-yl)acrylonitrile] | – |
| – | > 70 | > 200 | – | – | – | – | COc1cc(-c2cn(C)c(=O)c(C)c2C)cc(OC)c1C(=O)N1CC2CC1CN2C(=O)/C(C#N)=C/C(C)(C)C (mixture of isomers) [BRD9t, (E/Z)-2-(5-(2,6-dimethoxy-4-(1,4,5-trimethyl-6-oxo-1,6-dihydropyridin-3-yl)benzoyl)-2,6-diazabicyclo[2.2.1]heptane-2-carbonyl)-4,4-dimethylpent-2-enenitrile] | > 70 |
| < 25 | > 70 | < 25 | – | – | – | – | COc1cc(-c2cn(C)c(=O)c(C)c2C)cc(OC)c1CN1CC2CC1CN2C(=O)/C(C#N)=C/c1cccc(C(F)(F)F)n1 (mixture of isomers) [BRD9x, (E/Z)-2-(5-(2,6-dimethoxy-4-(1,4,5-trimethyl-6-oxo-1,6-dihydropyridin-3-yl)benzyl)-2,5-diazabicyclo[2.2.1]heptane-2-carbonyl)-3-(6-(trifluoromethyl)pyridin-2-yl)acrylonitrile] | – |
